According to ChEMBL document CHEMBL3988442, “University of Dundee, Small-Polar-MMV Screening Library” (2021):

Tests used:
[1] = microbe, parasite or virus in culture; conditions: Mycobacterium tuberculosis, 96 h, read-out: pIC50 (converted)
[2] = microbe, parasite or virus in culture; conditions: Mycobacterium tuberculosis, 72 h, read-out: pIC50 (converted)

Structure (SMILES) | IC50 [1] [µM] | IC50 [2] [µM]
O=C(NCc1[nH]ncc1Br)Nc1nc2c(s1)COCC2 | > 501 | 328
CCc1ccccc1OCCN(C)C(=O)CN1CCCC1 | > 50.1 | 39.2
CCCc1nc(CN2Cc3ncccc3C2=O)cs1 | 119 | 120
Cc1noc(C(C)Nc2ccc3c(c2)CCC3)n1 (configuration not stated) | 3.32 | 5.68
COc1cccc(F)c1C(C)NC(=O)c1nccn1C (configuration not stated) | 252 | 322
Cc1cc(OC(F)F)c(C2NC(=O)CN2C)cc1C (configuration not stated) | > 501 | > 501
Cc1noc(CSc2ccc(C(=O)N3CCC3)cc2)n1 | > 501 | > 501
Cc1ccc(C2(O)CCNC2)cc1 (configuration not stated) | > 501 | 181
CC(C)C1CN(C(=O)CCc2ccccn2)CCS1 (configuration not stated) | 95.5 | 79.8
OCCNCCNCc1ccc(-c2ccccc2)o1 | 29.2 | 159
COc1ccc(CN2C[C@H]3CN(C(=O)c4ccno4)CCN3C2=O)cc1 | > 50.1 | > 50.1
CN(Cc1ccc2c(c1)OCO2)C(=O)Cc1cccs1 | 239 | 199
CC(C)N(Cc1ccccn1)C(=O)c1cc(Cl)c[nH]1 | > 501 | > 501
O=C(Nc1ccccn1)c1csc(NC2CCCC2)n1 | 26.1 | 46.7
Cc1cccc(CN(CC(N)=O)Cc2ccccn2)c1 | > 501 | 194
CN(Cc1ccsc1)C(=O)CNC(=O)c1ccc(Br)o1 | 164 | 138
COC(=O)CCCNc1ccc2c(c1)OCCO2 | 467 | 140
Cc1c(C(=O)NCC(N)=O)oc2ccc(Cl)cc12 | 218 | 102
CNC(=O)CSc1nnnn1-c1ccc(C(C)C)cc1 | 134 | 120
OC(CN1CCn2ccnc2C1)c1cccc(F)c1 (configuration not stated) | > 501 | > 501
CC(C)Oc1ccc(CN)cc1 | > 501 | 284
COc1coc(CN2CCCC(CCc3ccc(F)cc3)C2)cc1=O (configuration not stated) | 23.1 | > 50.1
NC(=O)c1ccsc1NC(=O)CCN1CCCC1 | 248 | 204
Cc1cc(-c2noc(C(C)N)n2)ccc1F (configuration not stated) | > 501 | 457
OCC(CO)Nc1ccc2c(Cl)ccc(Cl)c2n1 | > 50.1 | > 50.1
Cc1ccc(CNCCOc2ccccn2)o1 | 98.7 | > 501

Structure (SMILES) | IC50 [1] [µM] | IC50 [2] [µM]
CNCCc1ccccc1OC | 124 | 74.4
CC(C)N(CCOc1cccc(F)c1)CC(N)=O | 199 | 210
Cc1cccnc1CN(C)C(C(=O)O)c1ccc(-n2cccn2)cc1 (configuration not stated) | 20.1 | 27
COc1ncc(CN2CCOC(Cc3cccc4ccccc34)C2)cn1 (configuration not stated) | > 50.1 | > 50.1
CC(C)CC(O)CNC(=O)c1cc(F)ccc1F (configuration not stated) | 57.2 | 238
CC(C)CC(C(=O)N(C)Cc1ncnn1C)N1CCCCC1=O (configuration not stated) | > 50.1 | > 50.1
CC(C)c1ccc(NC(=O)CN)cc1 | 204 | 245
CCCS(=O)(=O)NCCOc1ccc(C#N)cc1 | 291 | 220
O=C1NC2(CCCN(C(=O)CCn3cccn3)C2)Oc2ccccc21 (configuration not stated) | > 50.1 | 39.4
CC(C)(C)OC(=O)N1CCN(c2ccnc(N)c2)CC1 | > 501 | > 501
CC(C)Cc1noc(CNc2cc3c(cc2Cl)OCCCO3)n1 | 27.1 | > 50.1
C[C@@]1(O)CCN(C(=O)CN)C[C@@H]1Cc1ccccc1 | 174 | 219
Brc1cc2c(cc1CN1CCCNCC1)OCO2 | 460 | 112
CCc1nc(C#N)c(NCc2ccc3c(c2)OCO3)o1 | 205 | 105
O=C1CCCN1CCCNS(=O)(=O)c1ccc(Br)s1 | 6.97 | > 501
COc1ccnc(NC(=O)NCc2cccs2)c1 | 119 | 90.3
O=C(CNc1ccccc1F)N1CCCCC1 | 36.6 | 71.6
Cc1cc(NC2CCC(=O)N(C)C2)n2nccc2n1 (configuration not stated) | > 50.1 | > 50.1
CS(=O)(=O)N1CCC(Cc2ccccc2)C1 (configuration not stated) | 467 | 482
CCOCCN(C)C(c1cccnc1)c1ccc(F)cc1F (configuration not stated) | > 50.1 | > 50.1
CC1CCCN(CC(=O)Nc2ccccc2C(N)=O)C1 (configuration not stated) | > 501 | 248
C=C(C)CN1CCC(NC(=O)N2CCSCC2)CC1 | > 501 | > 501
O=C(c1ncoc1C1CC1)N1CCCN(CCCc2ccccc2)CC1 | > 50.1 | > 50.1
CCn1ccc(C(=O)NCc2ccco2)n1 | > 501 | 232
Cc1ccc(C(=O)NCc2ccc3c(c2)OCCO3)o1 | 71.5 | 115
CC(N)c1noc(-c2ccc(Cl)cc2)n1 (configuration not stated) | 375 | 261

Structure (SMILES) | IC50 [1] [µM] | IC50 [2] [µM]
CCN1CC(c2nc3ccccc3[nH]2)CC1=O (configuration not stated) | 260 | 250
Cc1csc(CNC(=O)c2ccco2)n1 | > 501 | > 501
OCCCC(Nc1ccccn1)c1ccccc1 (configuration not stated) | 111 | 109
O=C(Nc1cccnc1)[C@H]1COC[C@H]2CN(C3CCCC3)C[C@H]21 | > 50.1 | > 50.1
CN(Cc1ccc(Cl)s1)C(=O)C1CCN(C(N)=O)CC1 | > 501 | > 501
CN(C)[C@H]1C[C@@H](Cc2cc(-c3ccc(F)cc3)on2)C1(C)C | > 50.1 | > 50.1
NCC(CO)Cc1ccc(F)c(Br)c1 (configuration not stated) | 249 | 375
CC(C)c1cccc(S(=O)(=O)N2CCCC2CN)c1 (configuration not stated) | > 501 | 399
COC1CCN(C(=O)CCc2ccc(F)cc2F)C1 (configuration not stated) | 21.4 | 206
CCOc1ccc2c(c1)C=C(C(=O)NC)CO2 | 230 | 174
CNc1nc(C(=O)NC2COc3ccccc3C2)cs1 (configuration not stated) | 262 | 130
O=C1C=CC(=O)N1c1ccccc1OC(F)F | 143 | 109
CC(C)c1ccc(OCn2ccc(C(=O)N3CCCC3)n2)cc1 | 24.5 | 26.5
CC(C)COc1cncc(NC(C)CO)n1 (configuration not stated) | > 501 | > 501
O=C(CC1C=CCC1)N1CCN(c2ccccn2)CC1 (configuration not stated) | 407 | 167
CCc1nnc2n1CCN(C(=O)CN(CC)CC)C2 | > 50.1 | > 50.1
O=C(NCc1nnc2n1CCCCC2)N(Cc1ccncc1)C1CC1 | > 50.1 | > 50.1
CN1Cc2cc(-c3csc(N)n3)ccc2NC1=O | > 501 | > 501
CNS(=O)(=O)c1ccc(C(=O)Nc2ccc(F)cc2)o1 | > 501 | > 501
c1ccc(C2=NN=C(NC3CC3)SC2)cc1 | 140 | 230
O=C(NCC1CC1)c1noc(-c2ccccc2F)n1 | 99.7 | 16.4
CN(C)c1ccc(C(=O)N(C)C2(C#N)CCC2)cc1F | > 501 | > 501
CC(C)N(C)S(=O)(=O)N1CCc2sccc2C1C (configuration not stated) | 207 | 150
CCC1(CC)CN(C(=O)NCCC(C)C)CCS1(=O)=O | 407 | > 501
